Values joined by “and” are separate entries in the source; they are usually repeats but may differ in a detail not shown here. Equal values may be shown once. Read-outs that look alike come from different tables or passages of the source.
Target: influenza B polymerase bound to a c/v hybrid promoter (Influenza B virus, UniProt Q5V8Y6)
Test: biochemical
Design: species or system influenza B/Memphis/13/03
[1] = 0.025 mM NTPs, capped RNA primed, T ∼ 21°C, t = 10 min, read-out: IC50 (mM), c/v hybrid promoter
[2] = 0.25 mM NTPs, capped RNA primed, T ∼ 21°C, t = 5 min, read-out: IC50 (mM), c/v hybrid promoter

Structure (SMILES)	IC50 [1]	IC50 [2]	IC50 (IC50 (mM), c/v hybrid promoter)
Nc1ncnc2c1ncn2[C@@H]1O[C@H](COP(=O)(O)OP(=O)(O)OP(=O)(O)O)[C@@H](O)[C@H]1F [2'F-2'dATP]	0.04 mM	0.33 mM	–
Nc1ccn([C@@H]2O[C@H](COP(=O)(O)OP(=O)(O)OP(=O)(O)O)[C@@H](O)[C@H]2F)c(=O)n1 [2'F-2'dCTP]	–	–	0.45 mM and 1.9 mM
Nc1nc2c(ncn2[C@@H]2O[C@H](COP(=O)(O)OP(=O)(O)OP(=O)(O)O)[C@@H](O)[C@H]2F)c(=O)[nH]1 [2'F-2'dGTP]	0.04 mM	0.34 mM	–

Reference: PMC5399792 (Nucleic Acids Research, 2017)
